Experimental data published in patent publication US9815851B2, “Pyrrolo carboxamides as modulators of orphan nuclear receptor RAR-related orphan receptor-gamma (RORγ, NR1F3) activity and for the treatment of chronic inflammatory and autoimmune diseases” (PHENEX PHARMACEUTICALS AG, priority 2011, dated 2017).
Like-named read-outs stand apart in the source and are kept apart here.

Assays:
[1] = target: T1, RORγ ligand binding domain (LBD) (Homo sapiens, UniProt P51449); test: TR-FRET Activity Assay (ligand sensing, RORγ-LBD / coactivator peptide interaction, LANCE); format: biochemical
T1 construct: made in house; host or cells: E. coli BL-21 (BL3), vector pDEST15
T1 sequence (P51449 269-508 limits assumed): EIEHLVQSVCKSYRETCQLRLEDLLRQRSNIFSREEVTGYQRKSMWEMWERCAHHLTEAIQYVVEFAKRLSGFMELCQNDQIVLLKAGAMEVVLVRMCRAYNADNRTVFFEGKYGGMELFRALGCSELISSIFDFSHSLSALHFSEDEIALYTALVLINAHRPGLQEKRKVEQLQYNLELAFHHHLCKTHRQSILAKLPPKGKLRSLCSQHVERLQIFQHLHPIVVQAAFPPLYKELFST

RORγ = target: T2, RORγ (UniProt P51449); test: RORγ Gal4 Reporter Gene Assay in 293T cells (firefly and renilla luciferase); format: cell-based, human
T2 sequence (P51449 1-518): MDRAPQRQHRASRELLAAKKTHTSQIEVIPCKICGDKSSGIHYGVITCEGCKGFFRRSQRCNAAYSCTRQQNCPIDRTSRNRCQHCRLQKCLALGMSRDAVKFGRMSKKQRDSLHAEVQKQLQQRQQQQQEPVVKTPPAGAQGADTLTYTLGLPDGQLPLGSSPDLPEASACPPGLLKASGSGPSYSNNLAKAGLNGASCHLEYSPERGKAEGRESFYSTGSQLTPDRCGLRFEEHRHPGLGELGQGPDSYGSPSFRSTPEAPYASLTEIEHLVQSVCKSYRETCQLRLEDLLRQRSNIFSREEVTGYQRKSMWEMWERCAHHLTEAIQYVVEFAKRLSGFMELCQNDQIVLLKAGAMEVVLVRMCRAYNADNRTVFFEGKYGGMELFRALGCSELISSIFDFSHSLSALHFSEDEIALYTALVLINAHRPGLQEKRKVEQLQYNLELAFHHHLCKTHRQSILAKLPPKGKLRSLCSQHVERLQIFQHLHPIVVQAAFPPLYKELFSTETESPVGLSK

[2] = first value of the cell FRET/FF/REN, TR-FRET activity assay, read-out: pIC50 (FRET) (converted)
[3] = second value of the cell, Gal4 reporter gene assay in 293T cells, firefly luciferase
[4] = third value of the cell, Gal4 reporter gene assay in 293T cells, renilla normalised luciferase

SMILES | IC50 [1] | pIC50 (FF) (RORγ) | pIC50 (REN) (RORγ) | IC50 [1, 2] | pIC50 (FF) (RORγ; [3]) | pIC50 (REN) (RORγ; [4])
Cc1c(C(=O)NCC2(S(C)(=O)=O)CCOCC2)cc(-c2cc(C(C)(C)C)c3c(c2)C2(CCO3)CC2)n1CC1CCCCC1 [17/11] | 200 nM | 6.7/7.2/7.2 | 6.7/7.2/7.2 | – | – | –
Cc1c(C(=O)NCCC(C)(C)C(=O)O)cc(-c2ccc(S(=O)(=O)N[C@@H](C)C(F)(F)F)c(C(C)(C)C)c2)n1CC1CCCCC1 [17/152] | – | – | – | 1000 nM | 8.2 | 8.2
Cc1c(C(=O)NCC(C)(C)c2noc(=O)[nH]2)cc(-c2cc(C(C)(C)C)cc(C3(C)CC3)c2)n1CC1CCCCC1 [17/162] | – | – | – | 794 nM | 7.5 | 7.7
Cc1c(-c2cc(C(=O)N[C@H]3C[C@H](C(=O)O)C3)c(C)n2CC2CCCCC2)ccc(S(=O)(=O)NC(C)(C)C)c1C [17/272] | – | – | – | 501 nM | 6.8 | 6.9
Cc1c(C(=O)NC2CCOCC2)cc(-c2ccc(CN3CCOCC3)c(C(F)(F)F)c2)n1CC1CCCCC1 [Example 33, 1-(Cyclohexylmethyl)-2-methyl-5-(4-(morpholinomethyl)-3-(trifluoromethyl)phenyl)-N-(tetrahydro-2H-pyran-4-yl)-1H-pyrrole-3-carboxamide] | – | – | – | 3160 nM | 6.2 | 6.3
Cc1c(C(=O)NC2CCOCC2)cc(-c2ccc(S(=O)(=O)NC(C)(C)C)c(C(F)(F)F)c2)n1S(=O)(=O)C1CCCCC1 [17/218] | – | – | – | 316 nM | 7.1 | 7.3
Cc1c(C(=O)NC(C)C(C)(C)O)cc(-c2cc(C(C)(C)C)cc(C(C)(C)C)c2)n1CC1CCCCC1 (stereo not drawn) [1/36] | 158 nM | 6.8/6.5/6.6 | 6.8/6.5/6.6 | – | – | –
Cc1c(C(=O)NC2CCOCC2)cc(-c2ccc(-c3ccnn3C(C)C)c(C(C)(C)C)c2)n1CC1CCCCC1 [Example 26, 5-(3-(tert-Butyl)-4-(1-isopropyl-1H-pyrazol-5-yl)phenyl)-1-(cyclohexylmethyl)-2-methyl-N-(tetrahydro-2H-pyran-4-yl)-1H-pyrrole-3-carboxamide] | – | – | – | 200 nM | 7.5 | 7.6
Cc1c(C(=O)NC2SC(=O)NC2=O)cc(-c2cc(C(C)(C)C)c3c(c2)C2(CCO3)CC2)n1CC1CCCCC1 (stereo not drawn) [17/24] | – | – | – | 3160 nM | 5.8 | 5.7
Cc1c(C(=O)NCC(C)(C)O)cc(-c2cc(C(C)(C)C)nc3ccccc23)n1CC1CCCCC1 [17/366] | – | – | – | 5010 nM | 6.6 | 6.3
CC(C)(C)NS(=O)(=O)c1ccc(-c2c(Cl)c(C(=O)NC3CCOCC3)c(Cl)n2CC2CCCCC2)c2ccccc12 [Example 23, 5-(4-(N-(tert-Butyl)sulfamoyl)naphthalen-1-yl)-2,4-dichloro-1-(cyclohexylmethyl)-N-(tetrahydro-2H-pyran-4-yl)-1H-pyrrole-3-carboxamide] | 200 nM | 6.7/8.5/8.5 | 6.7/8.5/8.5 | – | – | –
Cc1c(C(=O)N[C@H]2C[C@@H](C(=O)O)C2)cc(-c2cc(C(C)(C)C)c3c(c2)C2(CCO3)CC2)n1CC1CCCCC1 [17/56] | – | – | – | 12600 nM | 6.4 | 6.4
Cc1c(C(=O)NCC2(O)CCOCC2)cc(-c2cc(C(=O)NC(C)(C)C)cc(C3(C)CC3)c2)n1CC1CCCCC1 [17/341] | 794 nM | 6.1/7.4/7.6 | 6.1/7.4/7.6 | – | – | –
Cc1c(C(=O)NCCCO)cc(-c2cc(C(C)(C)C)cc(C(C)(C)C)c2)n1CC1CCCCC1 [1/65] | – | – | – | 398 nM | 6.6 | 6.6
Cc1c(C(=O)NCC2(O)CCOCC2)cc(-c2cc(C(C)(C)C)c3c(c2)C(C)(C)C(=O)N3C)n1CC1CCCCC1 [17/48] | – | – | – | 1000 nM | 7.6 | 7.5
Cc1c(C(=O)NCC2CCN(S(C)(=O)=O)CC2)cc(-c2cc(C(C)(C)C)cc(C3(C)CC3)c2)n1CC1CCCCC1 [17/345] | – | – | – | 316 nM | 7.3 | 7.4
Cc1c(C(=O)NCC(N)=O)cc(-c2cc(C(C)(C)C)cc(C(C)(C)C)c2)n1CC1CCCCC1 [1/5] | – | – | – | 1000 nM | 6.3 | 6.2

SMILES | IC50 [1] | pIC50 (FF) (RORγ) | pIC50 (REN) (RORγ) | IC50 [1, 2] | pIC50 (FF) (RORγ; [3]) | pIC50 (REN) (RORγ; [4])
Cc1c(C(=O)NCCC(C)(C)C(=O)O)cc(-c2ccc(S(=O)(=O)NC(C)(C)C)c(C(F)F)c2)n1CC1CCCCC1 [17/130] | – | – | – | 251 nM | 7.5 | 7.6
Cc1c(C(=O)NCCN(C)C)cc(-c2cc(C(C)(C)C)cc(C(C)(C)C)c2)n1CC1CCCCC1 [1/56] | 3160 nM | 5.5/<4.7/<4.7 | 5.5/<4.7/<4.7 | – | – | –
Cc1c(C(=O)NC2CC2)cc(-c2cc(C(C)(C)C)cc(C3(C)CC3)c2)n1CC1CCCCC1 [1/83] | – | – | – | 316 nM | 6.9 | 7.0
Cc1c(C(=O)N2CC2CO)cc(-c2cc(C(C)(C)C)cc(C(C)(C)C)c2)n1CC1CCCCC1 (stereo not drawn) [17/45] | 1000 nM | 6.0/6.5/6.4 | 6.0/6.5/6.4 | – | – | –
Cc1c(C(=O)NCCC(C)(C)C(N)=O)cc(-c2cc(C(C)(C)C)cc(C3(C)CC3)c2)n1CC1CCCCC1 [17/74] | 501 nM | 6.3/7.3/7.2 | 6.3/7.3/7.2 | – | – | –
Cc1c(C(=O)NCCC(C)(C)C(=O)O)cc(-c2ccc(-c3ccnn3C(C)C)c(C(F)(F)F)c2)n1CC1CCCCC1 [17/250] | – | – | – | 1580 nM | 6.6 | 6.5
Cc1c(C(=O)N2CCC(C)(C(=O)O)CC2)cc(-c2cc(C(C)(C)C)c3c(c2)C2(CCO3)CC2)n1CC1CCCCC1 [17/54] | – | – | – | 1580 nM | 7.1 | 7.2
CCC(C)(C)NS(=O)(=O)c1ccc(-c2cc(C(=O)NC3CCOCC3)c(C)n2CC2CCCCC2)cc1C(F)(F)F [17/83] | – | – | – | 126 nM | 8.2 | 8.3
Cc1c(-c2cc(C(=O)NCC(C)(C)O)c(C)n2CC2CCCCC2)nc(C2(C)CC2)nc1C(C)(C)C [17/82] | – | – | – | 794 nM | 6.7 | 6.7
Cc1c(C(=O)NC2CCOCC2)cc(-c2cc(Cl)c(S(=O)(=O)NC(C)(C)C)c(Cl)c2)n1CC1CCCCC1 [17/235] | – | – | – | 200 nM | 7.6 | 7.6
Cc1c(C(=O)NCCS(N)(=O)=O)cc(-c2cc(C(C)(C)O)cc(C3(C)CC3)c2)n1CC1CCCCC1 [17/315] | – | – | – | 1260 nM | 6.5 | 6.5
Cc1c(C(=O)NC2CN(C(=O)OC(C)(C)C)C2)cc(-c2cc(C(C)(C)C)cc(C(C)(C)C)c2)n1CC1CCCCC1 [1/15] | – | – | – | 3160 nM | 5.5/5.5/5.5 | 5.5/5.5/5.5
Cc1c(C(=O)NCC(C)(C)O)cc(-c2cc(C(C)(C)C)cc(C(C)(C)C)c2)n1S(=O)(=O)N1CCCCC1 [7/7] | – | – | – | 398 nM | 6.5 | 6.6
Cc1c(C(=O)NC2CCOCC2)cc(-c2cc3c(c(C(C)(C)C)c2)OCCC3=NO)n1CC1CCCCC1 [18/3] | – | – | – | 1580 nM | 6.1 | 6.5
Cc1c(C(=O)NC2COC2)cc(-c2cc(C(C)(C)C)nc(C(C)(C)C)c2)n1CC1CCCCC1 [1/122] | – | – | – | 158 nM | 7.0 | 7.0
CCc1cc(-c2cc(C(N)=O)c(C)n2CC2CCCCC2)cc2c1OCC2(C)C [1/50] | – | – | – | 1580 nM | 6.0 | 6.1
